According to ChEMBL document CHEMBL6092145, “Recent advances in the design of small molecular drugs with acrylamides covalent warheads” (Bioorg Med Chem, 2024):
Values belong to the compound of their own block, whether it stands above or below them.

Assays:
[1] = molecular target: Tyrosine-protein kinase Blk (Homo sapiens, UniProt P51451)
Description: Inhibition of BLK (unknown origin)

[2] = clinical; conditions: human, in vivo, po
Description: Oral bioavailability in human

[3] = test system: NCI-H358; assay: cells; type: functional, cell-based; conditions: Homo sapiens, NCI-H358, 72 h
Description: Antiproliferative activity against human NCI-H358 cells assessed as reduction in cell growth incubated for 72 hrs by cell-titer glo assay

[4] = test system: NCI-H358; assay: cells; type: functional, cell-based; conditions: Homo sapiens
Description: Antiproliferative activity against human NCI-H358 cells assessed as reduction in cell viability

[5] = molecular target: Tyrosine-protein kinase Lck (Homo sapiens, UniProt P06239)
Chain of Tyrosine-protein kinase Lck (P06239 whole entry): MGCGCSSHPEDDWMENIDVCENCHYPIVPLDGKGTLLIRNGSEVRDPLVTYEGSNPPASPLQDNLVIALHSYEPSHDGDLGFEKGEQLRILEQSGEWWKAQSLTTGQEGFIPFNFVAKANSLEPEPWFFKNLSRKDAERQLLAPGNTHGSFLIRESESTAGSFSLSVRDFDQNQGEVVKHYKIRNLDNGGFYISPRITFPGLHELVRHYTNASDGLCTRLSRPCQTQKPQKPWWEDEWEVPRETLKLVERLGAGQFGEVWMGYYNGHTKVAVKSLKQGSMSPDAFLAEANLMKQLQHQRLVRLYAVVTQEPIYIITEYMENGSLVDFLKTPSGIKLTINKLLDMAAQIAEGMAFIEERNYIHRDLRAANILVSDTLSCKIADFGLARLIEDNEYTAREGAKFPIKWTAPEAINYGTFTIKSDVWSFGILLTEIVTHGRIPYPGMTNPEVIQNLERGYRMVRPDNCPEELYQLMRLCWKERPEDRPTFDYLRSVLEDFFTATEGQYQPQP
Description: Inhibition of LCK (unknown origin) using TK as substrate incubated for 30 mins by HTRF assay

[6] = molecular target: Tyrosine-protein kinase Lyn (Homo sapiens, UniProt P07948)
Chain of Tyrosine-protein kinase Lyn (P07948 whole entry): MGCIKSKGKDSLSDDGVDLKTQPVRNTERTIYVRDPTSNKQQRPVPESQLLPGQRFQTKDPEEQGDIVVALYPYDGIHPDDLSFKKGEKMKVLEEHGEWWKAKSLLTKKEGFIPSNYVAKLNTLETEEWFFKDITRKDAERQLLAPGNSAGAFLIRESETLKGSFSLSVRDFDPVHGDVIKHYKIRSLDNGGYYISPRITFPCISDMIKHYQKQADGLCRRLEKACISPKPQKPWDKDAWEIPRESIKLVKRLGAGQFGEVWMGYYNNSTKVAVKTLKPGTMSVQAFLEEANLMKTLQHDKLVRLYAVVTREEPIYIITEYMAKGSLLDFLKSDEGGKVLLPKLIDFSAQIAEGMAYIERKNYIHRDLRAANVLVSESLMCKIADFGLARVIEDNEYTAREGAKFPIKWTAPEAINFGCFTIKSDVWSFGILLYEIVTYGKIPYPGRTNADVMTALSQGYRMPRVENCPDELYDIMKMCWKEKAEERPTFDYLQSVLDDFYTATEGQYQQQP
Description: Inhibition of LYN (unknown origin)

[7] = molecular target: Epidermal growth factor receptor (Homo sapiens, UniProt P00533)
Chain of Epidermal growth factor receptor (P00533 whole entry): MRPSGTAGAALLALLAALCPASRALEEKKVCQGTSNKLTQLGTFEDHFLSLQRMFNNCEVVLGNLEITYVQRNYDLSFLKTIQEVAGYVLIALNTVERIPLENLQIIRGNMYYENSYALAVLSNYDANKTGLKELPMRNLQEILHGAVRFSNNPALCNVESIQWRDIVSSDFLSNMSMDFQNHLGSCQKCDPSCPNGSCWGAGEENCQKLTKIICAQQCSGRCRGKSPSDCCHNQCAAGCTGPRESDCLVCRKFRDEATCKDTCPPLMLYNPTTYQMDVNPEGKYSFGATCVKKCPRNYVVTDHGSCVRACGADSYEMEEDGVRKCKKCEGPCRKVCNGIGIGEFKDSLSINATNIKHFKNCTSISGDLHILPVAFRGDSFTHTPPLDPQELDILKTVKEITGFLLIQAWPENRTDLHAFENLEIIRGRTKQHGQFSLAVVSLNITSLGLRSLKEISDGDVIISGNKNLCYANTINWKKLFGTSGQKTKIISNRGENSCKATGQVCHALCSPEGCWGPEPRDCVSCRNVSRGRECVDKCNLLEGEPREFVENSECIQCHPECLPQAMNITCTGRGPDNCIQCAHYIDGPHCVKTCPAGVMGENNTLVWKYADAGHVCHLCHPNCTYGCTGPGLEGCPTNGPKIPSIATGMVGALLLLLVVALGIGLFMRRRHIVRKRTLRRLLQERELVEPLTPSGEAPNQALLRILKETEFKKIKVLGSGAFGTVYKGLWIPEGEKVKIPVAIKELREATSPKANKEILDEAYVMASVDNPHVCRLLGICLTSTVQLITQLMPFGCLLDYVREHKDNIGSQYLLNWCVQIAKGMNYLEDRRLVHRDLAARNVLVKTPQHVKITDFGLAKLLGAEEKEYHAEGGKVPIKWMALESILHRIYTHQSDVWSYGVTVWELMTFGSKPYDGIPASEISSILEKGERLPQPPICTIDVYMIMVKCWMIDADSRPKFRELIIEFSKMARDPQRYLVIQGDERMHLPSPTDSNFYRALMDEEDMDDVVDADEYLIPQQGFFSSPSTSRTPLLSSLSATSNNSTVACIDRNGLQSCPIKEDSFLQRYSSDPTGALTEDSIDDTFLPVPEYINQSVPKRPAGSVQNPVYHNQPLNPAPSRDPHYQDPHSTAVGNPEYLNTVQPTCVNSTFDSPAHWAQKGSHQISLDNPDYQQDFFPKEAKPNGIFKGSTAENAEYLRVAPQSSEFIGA

[8] = molecular target: Tyrosine-protein kinase BTK (Homo sapiens, UniProt Q06187)
Chain of Tyrosine-protein kinase BTK (Q06187 whole entry): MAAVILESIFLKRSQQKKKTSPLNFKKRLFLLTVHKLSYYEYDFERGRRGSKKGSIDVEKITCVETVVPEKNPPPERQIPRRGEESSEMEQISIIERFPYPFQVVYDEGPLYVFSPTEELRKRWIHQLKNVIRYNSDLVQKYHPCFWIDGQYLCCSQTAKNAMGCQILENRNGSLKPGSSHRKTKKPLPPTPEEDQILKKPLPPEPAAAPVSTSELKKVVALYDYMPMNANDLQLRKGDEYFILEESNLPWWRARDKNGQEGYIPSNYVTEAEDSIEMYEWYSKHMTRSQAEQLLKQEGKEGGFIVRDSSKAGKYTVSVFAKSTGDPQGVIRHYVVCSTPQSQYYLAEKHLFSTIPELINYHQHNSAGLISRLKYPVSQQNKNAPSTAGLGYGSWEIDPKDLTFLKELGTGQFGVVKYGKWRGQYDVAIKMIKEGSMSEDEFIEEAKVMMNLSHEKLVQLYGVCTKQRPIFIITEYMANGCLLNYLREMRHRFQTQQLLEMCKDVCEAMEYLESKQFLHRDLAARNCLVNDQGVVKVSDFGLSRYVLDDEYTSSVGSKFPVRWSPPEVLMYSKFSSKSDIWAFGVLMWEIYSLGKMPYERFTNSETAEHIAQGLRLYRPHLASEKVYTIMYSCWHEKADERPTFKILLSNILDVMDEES
Description: Inhibition of BTK (unknown origin)

Chain of Tyrosine-protein kinase Blk (P51451 whole entry): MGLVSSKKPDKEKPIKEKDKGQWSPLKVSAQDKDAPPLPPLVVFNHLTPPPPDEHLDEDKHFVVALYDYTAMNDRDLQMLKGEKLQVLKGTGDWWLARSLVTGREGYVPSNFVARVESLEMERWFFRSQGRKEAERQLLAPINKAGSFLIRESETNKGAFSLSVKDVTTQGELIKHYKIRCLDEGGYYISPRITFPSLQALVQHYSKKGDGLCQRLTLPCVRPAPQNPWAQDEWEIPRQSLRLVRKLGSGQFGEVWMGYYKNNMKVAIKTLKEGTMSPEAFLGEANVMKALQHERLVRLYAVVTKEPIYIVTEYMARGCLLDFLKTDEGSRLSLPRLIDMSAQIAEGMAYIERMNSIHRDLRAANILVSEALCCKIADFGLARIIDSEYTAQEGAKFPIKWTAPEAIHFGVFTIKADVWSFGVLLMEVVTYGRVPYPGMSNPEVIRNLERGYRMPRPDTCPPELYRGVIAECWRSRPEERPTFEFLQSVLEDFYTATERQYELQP

IC50 [1]: > 1000 nM
Structure (SMILES): C=CC(=O)N1CCN(C(=O)CNc2cc(Cl)c(Cl)cc2OC)CC1

bioavailability [2]: 16.9% | IC50 [3]: 1 nM
Structure (SMILES): C=CC(=O)N1CCN(c2nc(OC[C@@H]3CCCN3C)nc3c2CCN(c2cccc4cccc(Cl)c24)C3)C[C@@H]1CC#N

IC50 [4]: 68 nM
Structure (SMILES): C=CC(=O)N1CCN(c2nc(=O)n(-c3c(C)ccnc3C(C)C)c3nc(-c4c(O)cccc4F)c(F)cc23)[C@@H](C)C1 [SOTORASIB]

IC50 [4]: 939 nM
Structure (SMILES): C=CC(=O)N1CCN(c2ncnc3c(F)c(-c4c(O)cccc4F)c(Cl)cc23)CC1

The next lines start with the compound.

Structure (SMILES): CN(C)CCSSCCC(=O)Nc1cc(-c2cccs2)[nH]n1
IC50 [1]: > 10000 nM

Structure (SMILES): C=CC(=O)N1CC(N2CCN(C(=O)CNc3cc(C4(C)CC4)c(Cl)cc3O)CC2)C1
IC50 [4]: 250 nM

Structure (SMILES): Nc1ncnc2c1c(-c1ccc(Oc3ccccc3)cc1)nn2C1CCCC1
IC50 [5]: 4.6 nM | IC50 [6]: 2.5 nM

Structure (SMILES): C=C(F)C(=O)N1CCN(c2nc(OC[C@@H]3CCCN3CCCOCCC(=O)N[C@H](C(=O)N3C[C@H](O)C[C@H]3C(=O)NCc3ccc(-c4scnc4C)cc3)C(C)(C)C)nc3c2CCN(c2cccc4cccc(Cl)c24)C3)C[C@@H]1CC#N
IC50 [3]: 520 nM

Structure (SMILES): CN(C)CCSSCCC(=O)NC1CCN(C(=O)COc2ccc(Cl)cc2Cl)CC1
IC50 [7]: > 10000 nM

Structure (SMILES): CN(C)CCSSCCNC(=O)C1CCN(C(=O)CSc2ccc(Cl)cc2)CC1
IC50 [1]: > 10000 nM

Structure (SMILES): C=CC(=O)NC1Cn2c(c(-c3ccc(Oc4ccccc4)cc3)c3c(N)ncnc32)C1=C (centres undefined)
IC50 [8]: 0.4 nM | IC50 [1]: 0.5 nM
